Data as given in patent US20030166583A1, “Dermal cytochrome P450 1A inhibitors and enhancers” (priority 2002, published 2003).
“Also recorded” adds a separate entry of the source. Read-outs that look alike come from different tables or passages of the source.

What was measured:
liver CYP1A [1] = test system: liver CYP1A
Description: (§3) Nude mice were sacrificed by decapitation. The skin and liver were immediately removed and kept in ice bath or 4° C. […] Connective tissue, blood, and fat were carefully removed from the tissue. Excess water content was removed from the homogenized tissue by tissue papers before the tissue was weighed.
(§4) The suspension of homogenized tissue in potassium chloride solution was transferred into a Teflon pestle-glass homogenizer for homogenization for six (6) times. Then, potassium chloride solution was added into the homogenized suspension to bring the volume to about four (4) times of the homogenized suspension. The diluted suspension was 5 transferred into a centrifuge tube and centrifuged at 4° C., 9000 xg, for twenty (20) minutes. The supernatant containing microsomes from skin or liver tissue and other soluble substance were removed and the volume of the supernatant was brought up to four (4) times of the weight of the tissue by adding potassium chloride solution. The diluted supernatant was transferred into a centrifuge tube and centrifuged at 4° C., 100,000 xg, for one (1) hour (Beckman L8-80M). The precipitate containing the microsomes was obtained. Potassium chloride solution was added into the precipitate to bring the volume up to four (4) times of the weight of the tissue, and the suspension was centrifuged at 4° C., 100,000 xg for one (1) hour, to obtain the washed microsomes, which were stored at −78° C. in 0.1M KH2PO4-K2HPO4 buffer (pH=7.4).
(§5) The enzymatic activity of CYP1A was determined based on the activity of 7-ethoxyresorufin-O-deethylase (i.e., for CYP1A) and 7-methoxyresorufin-O-demethylase (i.e., CYP1A2). […] Except for the blank group, the reaction was triggered by adding 0.54 μM NADPH. In the test tube (16×100 mm), the reaction was carried out for ten (10) minutes at constant temperature (37° C.) with vibration and without light Methanol 2.5 ml was added into the reaction mixture to stop the reaction. Protein precipitate was removed from the reaction mixture by centrifuging the reaction mixture at 180 xg for ten (10) minutes. The supernatant was tested for florescent intensity with 550 nm as the excitation wavelength and 585 nm the emission wavelength. The florescent intensity was compared with 0.01 μM-0.1 μM standard Rhodamine B solution to obtain the reading of the CYP1A enzyme activity.

dermal CYP1A = assay: in vitro; settings: for inhibitory effect on dermal CYP1A activity, in words: at certain concentration (1, 10 or 100 μM); for enhancing effect on dermal CYP1A activity, in words: at certain concentrations (1, 10 or 100 μM)
Text: (§1) Nude mice were sacrificed by decapitation.
(§2) The precipitate containing the microsomes was obtained.

CYP1A [2] = assay: Liver microsomal CYP1A enzymatic activity, inhibition or enhancement; settings: nude, mouse
Description: as §3, §4, §5

liver CYP1A [3] = assay: as above; settings: at certain concentration (1, 10 or 100 μM)
Description: as §3, §4, §5

CYP1A [4] = assay: Dermal microsomal CYP1A enzymatic activity (7-ethoxyresorufin-O-deethylase), inhibition or enhancement; settings: nude, mouse
Text: as §1, §2

[5] = liver microsomes, pH 7.8, probe 7-ethoxyresorufin
[6] = pH 7.8, dermal CYP1A activity (% of control group)
[7] = pH 7.8, inhibition of dermal CYP1A activity

Row | SMILES | activity at 10 min, 1 µM (CYP1A [2]; [5]) [%] | activity at 10 min, 10 µM (CYP1A [2]; [5]) [%] | activity at 10 min, 100 µM (CYP1A [2]; [5]) [%] | enhancing effect on liver CYP1A activity, in words (liver CYP1A [3]) | activity at 10 min, 1 µM (CYP1A [4]; pH 7.8) [%] | activity at 10 min, 10 µM (CYP1A [4]; pH 7.8) [%] | activity at 10 min, 100 µM (CYP1A [4]; pH 7.8) [%] | inhibition at 10 min, 100 µM (CYP1A [4]; pH 7.8) [%] | inhibitory effect on dermal CYP1A activity, in words (dermal CYP1A) | inhibitory effect on liver CYP1A activity, in words (liver CYP1A [3]) | activity at 10 min, 1 µM (CYP1A [4]; [6]) [%] | activity at 10 min, 10 µM (CYP1A [4]; [6]) [%] | activity at 10 min, 100 µM (CYP1A [4]; [6]) [%] | other results
1 | O=c1cc(-c2ccccc2)oc2c1ccc1ccccc12 [Alpha-NF, α-naphthoflavone] | – | – | – | – | – | – | – | – | – | – | – | – | – | liver CYP1A activity (% of control group) (liver CYP1A [1]; 1 µM): 32.91%; liver CYP1A activity (% of control group) (liver CYP1A [1]; 10 µM): 11.06%; liver CYP1A activity (% of control group) (liver CYP1A [1]; 100 µM): 7.77%; dose dependence of the inhibitory effect on dermal CYP1A (dermal CYP1A): dose-dependent; inhibition of dermal microsomal CYP1A activity (dermal CYP1A): more than 90%; dermal CYP1A activity (% of control group) (dermal CYP1A; 100 µM): 0.83%
2 | O=c1c(-c2ccc(O)cc2)coc2cc(O[C@@H]3O[C@H](CO)[C@@H](O)[C@H](O)[C@H]3O)ccc12 [Daidzin] | 110 | 112 | 111 | enhancing effect | 111 | 84.2 | 70.4 | ~30 | inhibition effects | – | – | – | – | enhancing effect on dermal CYP1A activity, in words (dermal CYP1A): enhancing effects
3 | O=c1c(-c2ccc(O)cc2)coc2cc(O)cc(O)c12 [Genistein] | 109 | 108 | 109 | enhancing effect | 77.4 | 60.2 | 35.4 | ~65 | inhibition effects | – | – | – | – | –
4 | CC1(C)[C@@H](O[C@H]2O[C@H](C(=O)O)[C@@H](O)[C@H](O)[C@H]2O[C@@H]2O[C@H](C(=O)O)[C@@H](O)[C@H](O)[C@H]2O)CC[C@]2(C)[C@H]3C(=O)C=C4[C@@H]5C[C@@](C)(C(=O)O)CC[C@]5(C)CC[C@@]4(C)[C@]3(C)CC[C@@H]12 [Glycyrrihizin, Glycyrrhizin] | 118 | 99.9 | 89.1 | enhancing effect | 98.9 | 102 | 107 | – | – | inhibitory effects | – | – | – | –
5 | O=c1c(O[C@@H]2O[C@H](CO)[C@@H](O)[C@H](O)[C@H]2O)c(-c2ccc(O)c(O)c2)oc2cc(O)cc(O)c12 [Isoquercitrin] | 99 | 104 | 95.7 | enhancing effect | – | – | – | – | inhibition effects | inhibitory effects | 112 | 67 | 44.2 | inhibition at 10 min, 100 µM (CYP1A [4]; [7]): ~56%; enhancing effect on dermal CYP1A activity, in words (dermal CYP1A): enhancing effects
6 | O=c1c(O)c(-c2ccc(O)cc2)oc2cc(O)cc(O)c12 [Kaempferol] | 100 | 68.9 | 18.1 | – | – | – | – | – | – | inhibitory effects; also recorded: most inhibitory effect; also recorded: most effective inhibitors | ~34 | ~22 | 0 | inhibition at 10 min, 100 µM (CYP1A [2]; [5]): ~82%; inhibition at 10 min, 100 µM (CYP1A [4]; [7]): > 90%; dose dependence of the inhibitory effect on dermal CYP1A (dermal CYP1A): dose-dependent effect; dermal CYP1A activity (% of control group) (dermal CYP1A; nude, mouse, 10 min, 1 µM, pH 7.8): 33.73%; dermal CYP1A activity (% of control group) (dermal CYP1A; nude, mouse, 10 min, 10 µM, pH 7.8): 22.35%
7 | CCCCCCCCCCCCO [Lauryl alcohol] | 113 | 115 | 101 | enhancing effect | 88.2 | 97.2 | 52.4 | ~48 | – | – | – | – | – | –
8 | CC(Cc1ccc(O)c(O)c1)C(C)Cc1ccc(O)c(O)c1 (stereo not drawn) [Nordihydroguaiaretic acid] | 140 | 147 | 119 | enhancing effect; also recorded: most enhancing effect | 110 | 96.6 | 59.5 | ~41 | – | – | – | – | – | –
9 | CC1(C)CC[C@]2(C(=O)O)CC[C@]3(C)C(=CC[C@@H]4[C@@]5(C)CC[C@H](O)C(C)(C)[C@@H]5CC[C@]43C)[C@@H]2C1 [Oleanolic acid] | 94 | 99.9 | 87.3 | – | – | – | – | – | inhibition effects | inhibitory effects | – | – | – | activity at 10 min, 1 µM (CYP1A [4]; skin (dermal) microsomes, pH 7.8, probe 7-ethoxyresorufin, dermal CYP1A activity (% of control group), compound 1 μM, skin microsomes, mean of at least 3 repeats): 24%; activity at 10 min, 10 µM (CYP1A [4]; skin (dermal) microsomes, pH 7.8, probe 7-ethoxyresorufin, dermal CYP1A activity (% of control group), compound 10 μM, skin microsomes, mean of at least 3 repeats): 25.7%; activity at 10 min, 100 µM (CYP1A [4]; skin (dermal) microsomes, pH 7.8, probe 7-ethoxyresorufin, dermal CYP1A activity (% of control group), compound 100 μM, skin microsomes, mean of at least 3 repeats): 46.7%; inhibition at 10 min, 1 µM (CYP1A [4]; skin (dermal) microsomes, pH 7.8, probe 7-ethoxyresorufin, inhibition of dermal CYP1A activity, compound 1 μM): ~76%
10 | C[C@@]12C[C@@]3(O)O[C@@H](O1)[C@]1(COC(=O)c4ccccc4)[C@H]3C[C@@]12O[C@@H]1O[C@H](CO)[C@@H](O)[C@H](O)[C@H]1O [Paeoniflorin] | 123 | 124 | 121 | enhancing effect | – | – | – | – | – | – | 91 | 105 | 104 | –
11 | O=C(O)c1ccc(O)c(O)c1 [Protocatechuic acid] | 119 | 123 | 107 | enhancing effect | – | – | – | – | – | – | 138 | 121 | 102 | –
12 | O=c1c(O)c(-c2ccc(O)c(O)c2)oc2cc(O)cc(O)c12 [Quercetin] | 114 | 86.7 | 19.2 | enhancing effect | 67.9 | 41.9 | 8.37 | ~92 | – | inhibitory effects; also recorded: most inhibitory effect; also recorded: most effective inhibitors | – | – | – | –
13 | C[C@@H]1O[C@@H](Oc2c(-c3ccc(O)c(O)c3)oc3cc(O)cc(O)c3c2=O)[C@H](O)[C@H](O)[C@H]1O [Quercitrin] | – | 104 | 89.2 | enhancing effect | 87.8 | 77.1 | 75 | ~25 | inhibition effects | inhibitory effects | – | – | – | activity at 10 min, 1 µM (CYP1A [2]; pH 7.8): 109%
14 | C[C@@H]1O[C@@H](OC[C@H]2O[C@@H](Oc3c(-c4ccc(O)c(O)c4)oc4cc(O)cc(O)c4c3=O)[C@H](O)[C@@H](O)[C@@H]2O)[C@H](O)[C@H](O)[C@H]1O [Rutin] | 117 | 124 | 90.7 | enhancing effect | – | – | – | – | inhibition effects | inhibitory effects | 94.1 | 98.4 | 59.2 | inhibition at 10 min, 100 µM (CYP1A [4]; [7]): ~41%; enhancing effect on dermal CYP1A activity, in words (dermal CYP1A): enhancing effects
15 | O=c1ccc2ccc(O)cc2o1 [Umbelliferone] | 120 | 119 | – | enhancing effect | 72.5 | 52.7 | 75.8 | – | – | – | – | – | – | inhibition at 10 min, 10 µM (CYP1A [4]; pH 7.8): ~47%
